Earlier results in patent US6943160B2, “Morpholine derivatives as antagonists of orexin receptors” (SmithKline Beecham plc, priority 2000, dated 2005).

Key:
freely-feeding rats = conditions: central administration, 4 hour time period
orexin receptors = conditions: central administration at onset of normal sleep period, rat

In the case of “orexin-A: ligand (agonist) of the orexin receptors; human orexin-A has sequence SEQ ID NO: 1, pyroEPLPDCCRQKTCSCRLYELLHGAGNHAAGILTL-NH2”, the “increase in food intake over control rats receiving vehicle” value (freely-feeding rats) is given as “approximately four-fold” and the effect on arousal (orexin receptors) is given as “dose-related increase in arousal”.
